From patent publication US7354904B2, “Bacteriocin inducer peptides” (priority 2005, dated 2008)

How the values were obtained:
C. jejuni = experiment: Spot Test, antagonistic activity of isolated signal peptides; assay type: cell-based, Campylobacter jejuni; settings: isolated signal peptide
Procedure: The antagonistic activity of the bacteriocins produced when using the signal peptide and an inducer strain of bacteria against C. jejuni and S. enteritidis was assessed using a Spot Test. The steps included taking various concentrations of pure preparation (μg/ml) of the bacteriocin in approximately 10 microliters of volume plated onto blood-supplemented Campylobacter agar or Nutrient agar (MPA or Meta Peptone Agar) previously seeded with cells of target bacteria. Plates containing cultures of C. jejuni were grown at about 42° C., under microaerobic conditions. Plates containing S. enteritidis were grown at about 37° C. under aerobic conditions. Activity of the bacteriocin was expressed in arbitrary units (AU) per one milliliter of the preparation at which a visible zone of inhibition of the growth of culture appears (Henderson et al., Archives of Biochemistry and Biophysics, Volume 295, 5-12, 1992; herein incorporated by reference). Specific activity can also expressed as arbitrary units per milligram of pure bacteriocin.
Its activity was about 200 AU/ml and its molecular weight was about 2.5 kDa, as determined by SDS-PAGE electrophoresis. The isoelectric point (pI) was about 7.9 (FIGS. 1A and 1B).
Its molecular weight was about 3.1 kDa as measured by SDS-PAGE and the isoelectric point (pI) was about 8.1 (FIGS. 2A and 2B).
Its molecular weight was about 2.1 kDa as determined by SDS-PAGE electrophoresis and its isoelectric point was about 8.9 (FIGS. 3A and 3B).

[1] = tested on: Enterococcus faecium LWP 50-52; experiment: Influence of signal peptide on bacteriocin 50-52 production, flask culture (fraction protein at 215 nm, activity by spot-test against C. jejuni and S. enteritidis); assay type: cell-based
[2] = tested on: Streptococcus cricetus LWP 760; experiment: Bacteriocin 760 production with signal peptide under scaled-up conditions (bioreactor); assay type: cell-based; settings: V-61 reactor, 10% Brucella Broth, LWP 760, LWP 320, peptide 0.22 mg added after two hours, pH 6.9, 37° C., 12 hours
[3] = LWP 50-52 + LWP 320, LWP 760 peptide 0.1 mg/ml

With “WNKYKTNWVLSVCNTGCACAAVKGLT (listed as Streptococcus cricetus) [LWP 760 Signal Peptide, signal peptide isolated from Streptococcus cricetus LWP 760, stimulates bacteriocin 760 production]” the antagonistic activity (C. jejuni) was “did not possess antagonistic activity”, the Activity [1, 3] was 819,200 AU/ml and the “Protein Concentration” value [1, 3] was 0.25 mg/mL. For the same sequence, the “Protein increase vs. Control” value [1, 3] was 1, the “Specific Activity” value [1, 3] was 3,276,800 AU/mg and the mg protein/liter [1, 3] was 82.5 mg protein/liter. For the same sequence, the “yield of bacteriocin 50-52 versus the control” value ([1]; signal peptide of another strain added to LWP 50-52 + LWP 320) was “did not increase”, the Activity [2] was 13,107,200 AU/ml and the “Increase in the amount of protein produced vs. in control” value [2] was 4.25. The “Protein Concentration” value [2] was 3.4 mg/mL, the “Protein produced per one liter of medium” value [2] was 510 mg and the “Specific Activity” value [2] was 3,855,058 AU/mg.
